In patent US6288111A (Research Development Foundation, priority 1995, dated 2001):
Like-named read-outs stand apart in the source and are kept apart here.

Legend:
melanoma [1] = test: Clinical trial: response of melanoma patients to DDP alone, then TAM/DDP; type: in vivo, human
Description: A complete response was defined as the complete disappearance of all evidence of disease for at least 4 weeks. A partial response was a decrease in the mean diameter of the target lesion by 50% or more lasting at least 4 weeks. A mixed response was a decrease in the diameter of some target lesions of 50% or more while others remained stable or increased in size.
Patients were retreated every 3 weeks. […] Subsequent patients received an ondansetron-based regimen.

[2] = test system: T-289 human melanoma cells; test: Development of DDP resistance in T-289 cells (selection with DDP ± TAM, colony formation assay); type: cell-based
[3] = Plasma concentrations of TAM in patients; settings: predicted from in vitro data
[4] = read-out: Steady-state plasma concentration; chronic administration, 10 mg p.o. twice a day; cited from earlier work
[5] = Clinical trial: toxicities with DDP or DDP/TAM treatment; settings: in words
Description: (§1) Entry requirements included histologically documented melanoma, measurable disease, signed informed consent, and no anti-tumor therapy during the previous 4 weeks. Patients were required to have normal hematologic and renal function, an Eastern Cooperative Oncology Group (ECOG) performance status of 0-2 and an estimated survival of at least 3 months. Patients with a previous history of deep venous thrombosis or pulmonary embolism were excluded.
(§2) Pre-treatment hydration consisted of 1 liter of 5% dextrose/0.45%saline containing 20 mEq of potassium chloride and 2 g magnesium sulfate administered over 4 hours. […] Patients were retreated every 3 weeks. On cycles where TAM was administered, 40 mg p.o. four doses per day were given on day 1 followed by 20 mg p.o. daily thereafter.

melanoma [6] = settings: 203 treated melanoma patients; cited from earlier work
[7] = human, in vivo
Description: as §1, §2

[8] = DDP alone: 24 patients, TAM/DDP: 20 patients (19 evaluated), after DDP alone
[9] = DDP alone: 24 patients, TAM/DDP: 20 patients, after DDP alone
[10] = of the 19 patients evaluated for TAM/DDP

Question: For `N.N.[Cl][Pt][Cl]` [DDP, cis-diamminedichloroplatinum (II)], which “Duration of complete response” value (melanoma [1]; DDP alone, one patient) is on record?
Answer: more than 15 months

Question: And the “Stable off treatment after partial response” value (melanoma [1]; DDP alone, one patient)?
Answer: ≥ 6 months

Question: And the “Time to progression after partial response” value (melanoma [1]; DDP alone, one patient)?
Answer: 4 months

Question: What about the “Complete Response (%)” value (melanoma [1]; DDP alone: 24 patients) of the same compound?
Answer: 4%

Question: What about the “Progressive Disease (number of patients)” value (melanoma [1]; DDP alone: 24 patients (two refused DDP/TAM), TAM/DDP: 20 patients) of the same compound?
Answer: 19 patients

Question: And the “Stable Disease (number of patients)” value (melanoma [1]; DDP alone: 24 patients, TAM/DDP: 20 patients)?
Answer: 2 patients

Question: What about the “Mixed Response (number of patients)” value (melanoma [1]; [8]) of the same compound?
Answer: 0 patients

Question: And the “Partial Response (number of patients)” value (melanoma [1]; [8])?
Answer: 2 patients

Question: What about the “Complete Response (number of patients)” value (melanoma [1]; [9]) of the same compound?
Answer: One

Question: And the “Partial Response (%)” value (melanoma [1]; [9])?
Answer: 8%

Question: And the “Complete Response (number of patients)” value (melanoma [1]; DDP alone: 24 patients, TAM/DDP: 20 patients, after DDP alone, listed as Cisplatin)?
Answer: 1 patients

Question: And the “Progressive disease while receiving single agent DDP (number of patients)” value (melanoma [1]; [10])?
Answer: 17 patients

Question: And the “Stable disease while receiving single agent DDP (number of patients)” value (melanoma [1]; [10])?
Answer: 2 patients

Question: What about the “Time at which DDP resistance became apparent” value ([2]; T-289, selection) of the same compound?
Answer: 200 days

Question: And the “Rate of emergence of DDP resistance, DDP alone compared with DDP and TAM” value ([2]; T-289, p<0.01)?
Answer: 2.75 fold

Question: Which results are given for `CC/C(=C(\c1ccccc1)c1ccc(OCCN(C)C)cc1)c1ccccc1` [TAM, tamoxifen]?
Answer: Outcome of treatment in words (melanoma [1]; TAM and DDP in patients resistant to single agent DDP): can overcome established resistance to DDP in a significant fraction of patients with malignant melanoma; Plasma concentration predicted to be necessary in DDP resistant patients [3]: more than 1.0 μM; concentration [4]: ~290 nM; Nephrotoxicity [5]: nephrotoxicity was uncommon and unaffected by the administration of TAM; Overall toxicity / tolerability [5]: No increased toxicity was noted with the addition of TAM to single agent DDP; Nausea or vomiting ([5]; during hospitalization for ondonsetron): did not increase nausea or vomiting; Effect on development of DDP resistance ([2]; T-289, concurrent DDP and TAM, in words): can delay the development of DDP resistance; Response rate, single agent TAM (melanoma [6]): 6%

Question: Which Nausea or vomiting [7] does the source give for `Cc1nccn1CC1CCc2c(c3ccccc3n2C)C1=O` (stereo not drawn) [ondonsetron] here?
Answer: markedly reduced nausea and vomiting during hospitalization
